From ChEMBL document CHEMBL3352096, “New 9,19-cycloartenol glycosides isolated from the roots of Cimicifuga simplex and their anti-inflammatory effects” (Bioorg Med Chem Lett, 2014)
Active and inactive are the calls of the source.

Assays:
Type in all cases: functional, cell-based
RAW [1] = experiment: Antiinflammatory activity against mouse RAW cells assessed as inhibition of LPS-induced IL-23 production at 10 uM by Q-PCR analysis
RAW [2] = experiment: Antiinflammatory activity against mouse RAW cells assessed as inhibition of LPS-induced TNFalpha production at 10 uM by Q-PCR analysis
RAW [3] = experiment: Antiinflammatory activity against mouse RAW cells assessed as inhibition of LPS-induced IL-6 production at 10 uM by Q-PCR analysis

Measured: inhibition

CC(=O)O[C@@H]1C[C@@]23C[C@@]24CC[C@H](O[C@@H]2O[C@H](CO)[C@H](O)[C@H](O)[C@H]2O)C(C)(C)[C@@H]4CC[C@H]3[C@]2(C)C[C@]3(O)O[C@H](C(=O)[C@@H]4OC4(C)C)[C@@H](C)[C@@H]3[C@@]12C
active: RAW [1] | RAW [2] | RAW [3]

CC(=O)O[C@@H]1C[C@@]23C[C@@]24CC[C@H](O[C@@H]2OC[C@@H](O)[C@H](O)[C@H]2O)C(C)(C)[C@@H]4CC=C3[C@]2(C)C[C@]3(O)O[C@H](C(=O)[C@@H]4OC4(C)C)[C@@H](C)[C@@H]3[C@@]12C
active: RAW [1] | RAW [2] | RAW [3]
